Values belong to the compound of their own block, whether it stands above or below them.
Test system: 361931-004-R-J1-PDC multicell spheroid viability
Assay: Anticancer human tumor 361931-004-R-J1-PDC patient-derived colon adenocarcinoma cell line growth inhibition [PI3K]
Settings: for viability, T/C: stronger effect = lower value
Method in brief: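 High-throughput combination screen: PI3K inhibitors crossed with targeted small molecules on complex spheroids of tumor cells, HUVEC and MSCs at 37 degrees C, 5% CO2. Top concentration was at or near clinical Cmax (otherwise 10 microM), with half-log decrements.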

[1] = curve of first compound, second compound 0.00316 µM
[2] = curve of first compound, second compound 0.01 µM
[3] = curve of first compound, second compound 0.0316 µM
[4] = curve of first compound, second compound 0.1 µM
[5] = curve of first compound, second compound 0.316 µM
[6] = curve of first compound, second compound 1 µM
[7] = second compound 0.00316 µM, first compound 0.000316 µM
[8] = second compound 0.00316 µM, first compound 0.001 µM
[9] = second compound 0.00316 µM, first compound 0.00316 µM
[10] = second compound 0.00316 µM, first compound 0.01 µM
[11] = second compound 0.00316 µM, first compound 0.0316 µM
[12] = second compound 0.00316 µM, first compound 0.1 µM
[13] = second compound 0.01 µM, first compound 0.000316 µM
[14] = second compound 0.01 µM, first compound 0.001 µM
[15] = second compound 0.01 µM, first compound 0.00316 µM
[16] = second compound 0.01 µM, first compound 0.01 µM
[17] = second compound 0.01 µM, first compound 0.0316 µM
[18] = second compound 0.01 µM, first compound 0.1 µM
[19] = second compound 0.0316 µM, first compound 0.000316 µM
[20] = second compound 0.0316 µM, first compound 0.001 µM
[21] = second compound 0.0316 µM, first compound 0.00316 µM
[22] = second compound 0.0316 µM, first compound 0.01 µM
[23] = second compound 0.0316 µM, first compound 0.0316 µM
[24] = second compound 0.0316 µM, first compound 0.1 µM
[25] = second compound 0.1 µM, first compound 0.000316 µM
[26] = second compound 0.1 µM, first compound 0.001 µM
[27] = second compound 0.1 µM, first compound 0.00316 µM
[28] = second compound 0.1 µM, first compound 0.01 µM
[29] = second compound 0.1 µM, first compound 0.0316 µM
[30] = second compound 0.1 µM, first compound 0.1 µM
[31] = second compound 0.316 µM, first compound 0.000316 µM
[32] = second compound 0.316 µM, first compound 0.001 µM
[33] = second compound 0.316 µM, first compound 0.00316 µM
[34] = second compound 0.316 µM, first compound 0.01 µM
[35] = second compound 0.316 µM, first compound 0.0316 µM
[36] = second compound 0.316 µM, first compound 0.1 µM
[37] = second compound 1 µM, first compound 0.000316 µM
[38] = second compound 1 µM, first compound 0.001 µM
[39] = second compound 1 µM, first compound 0.00316 µM
[40] = second compound 1 µM, first compound 0.01 µM
[41] = second compound 1 µM, first compound 0.0316 µM
[42] = second compound 1 µM, first compound 0.1 µM
[43] = second compound 0.00316 µM, first compound 0.316 µM
[44] = second compound 0.00316 µM, first compound 1 µM
[45] = second compound 0.00316 µM, first compound 3.16 µM
[46] = second compound 0.00316 µM, first compound 10 µM
[47] = second compound 0.01 µM, first compound 0.316 µM
[48] = second compound 0.01 µM, first compound 1 µM
[49] = second compound 0.01 µM, first compound 3.16 µM
[50] = second compound 0.01 µM, first compound 10 µM
[51] = second compound 0.0316 µM, first compound 0.316 µM
[52] = second compound 0.0316 µM, first compound 1 µM
[53] = second compound 0.0316 µM, first compound 3.16 µM
[54] = second compound 0.0316 µM, first compound 10 µM
[55] = second compound 0.1 µM, first compound 0.316 µM
[56] = second compound 0.1 µM, first compound 1 µM
[57] = second compound 0.1 µM, first compound 3.16 µM
[58] = second compound 0.1 µM, first compound 10 µM
[59] = second compound 0.316 µM, first compound 0.316 µM
[60] = second compound 0.316 µM, first compound 1 µM
[61] = second compound 0.316 µM, first compound 3.16 µM
[62] = second compound 0.316 µM, first compound 10 µM
[63] = second compound 1 µM, first compound 0.316 µM
[64] = second compound 1 µM, first compound 1 µM
[65] = second compound 1 µM, first compound 3.16 µM
[66] = second compound 1 µM, first compound 10 µM
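Note: spheroids exposed to agents for seven days before readout.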

IC50 [1]: > 10000 nM
IC50 [2]: > 10000 nM
IC50 [3]: > 10000 nM
IC50 [4]: > 10000 nM
IC50 [5]: > 10000 nM
IC50 [6]: > 10000 nM
Compound: C=CC(=O)N1CCN(c2nc(=O)n(-c3c(C)ccnc3C(C)C)c3nc(-c4c(O)cccc4F)c(F)cc23)C(C)C1 (centres undefined) + CC(Nc1ccc2c(c1)OCCn1cc(N3C(=O)OCC3C(F)F)nc1-2)C(N)=O
viability, T/C [11]: 99.7%
viability, T/C [12]: 103%
viability, T/C [43]: 101%
viability, T/C [44]: 92.7%
viability, T/C [45]: 99.8%
viability, T/C [46]: 81.2%
viability, T/C [17]: 107%
viability, T/C [18]: 100%
viability, T/C [47]: 99.5%
viability, T/C [48]: 99.5%
viability, T/C [49]: 106%
viability, T/C [50]: 89.8%
viability, T/C [23]: 104%
viability, T/C [24]: 103%
viability, T/C [51]: 99.2%
viability, T/C [52]: 97.5%
viability, T/C [53]: 97%
viability, T/C [54]: 76.2%
viability, T/C [29]: 97.4%
viability, T/C [30]: 91.6%
viability, T/C [55]: 96.9%
viability, T/C [56]: 101%
viability, T/C [57]: 93.5%
viability, T/C [58]: 72.2%
viability, T/C [35]: 88.7%
viability, T/C [36]: 84.7%
viability, T/C [59]: 81.6%
viability, T/C [60]: 89.4%
viability, T/C [61]: 86%
viability, T/C [62]: 66%
viability, T/C [41]: 75.5%
viability, T/C [42]: 78.2%
viability, T/C [63]: 80%
viability, T/C [64]: 80.1%
viability, T/C [65]: 86.7%
viability, T/C [66]: 59.4%

IC50 [1]: > 100 nM
IC50 [2]: > 100 nM
IC50 [3]: 78.3 nM
IC50 [4]: 51.8 nM
IC50 [5]: 4.51 nM
IC50 [6]: < 0.316 nM
Compound: CC(C)n1nc(-c2ccc3oc(N)nc3c2)c2c(N)ncnc21 + COc1c(OCCCN2CCOCC2)ccc2c3n(c(=NC(=O)c4cnc(N)nc4)nc12)CCN3
viability, T/C [7]: 99.9%
viability, T/C [8]: 108%
viability, T/C [9]: 101%
viability, T/C [10]: 106%
viability, T/C [11]: 108%
viability, T/C [12]: 77.5%
viability, T/C [13]: 106%
viability, T/C [14]: 102%
viability, T/C [15]: 99.3%
viability, T/C [16]: 100%
viability, T/C [17]: 99.2%
viability, T/C [18]: 57.6%
viability, T/C [19]: 94.1%
viability, T/C [20]: 98.7%
viability, T/C [21]: 89.2%
viability, T/C [22]: 94.2%
viability, T/C [23]: 85.6%
viability, T/C [24]: 40.4%
viability, T/C [25]: 80.8%
viability, T/C [26]: 85.5%
viability, T/C [27]: 79%
viability, T/C [28]: 72.8%
viability, T/C [29]: 62.9%
viability, T/C [30]: 34.1%
viability, T/C [31]: 64.7%
viability, T/C [32]: 56.3%
viability, T/C [33]: 54.2%
viability, T/C [34]: 43.9%
viability, T/C [35]: 35.5%
viability, T/C [36]: 22.4%
viability, T/C [37]: 20.8%
viability, T/C [38]: 20.7%
viability, T/C [39]: 22.3%
viability, T/C [40]: 20.9%
viability, T/C [41]: 20.2%
viability, T/C [42]: 10.6%

IC50 [1]: > 10000 nM
IC50 [2]: > 10000 nM
IC50 [3]: > 10000 nM
IC50 [4]: 5010 nM
IC50 [5]: 213 nM
IC50 [6]: < 31.6 nM
Compound: C[C@@H](NC(=O)c1ncnc(N)c1Cl)c1ncc(C(=O)Nc2cc(C(F)(F)F)c(Cl)cn2)s1 + COc1c(OCCCN2CCOCC2)ccc2c3n(c(=NC(=O)c4cnc(N)nc4)nc12)CCN3
viability, T/C [11]: 108%
viability, T/C [12]: 101%
viability, T/C [43]: 108%
viability, T/C [44]: 102%
viability, T/C [45]: 109%
viability, T/C [46]: 89.2%
viability, T/C [17]: 110%
viability, T/C [18]: 99.9%
viability, T/C [47]: 105%
viability, T/C [48]: 98%
viability, T/C [49]: 98.4%
viability, T/C [50]: 89%
viability, T/C [23]: 98.6%
viability, T/C [24]: 100%
viability, T/C [51]: 96.6%
viability, T/C [52]: 87.7%
viability, T/C [53]: 89.2%
viability, T/C [54]: 71.2%
viability, T/C [29]: 85.9%
viability, T/C [30]: 86.1%
viability, T/C [55]: 91.1%
viability, T/C [56]: 71.3%
viability, T/C [57]: 64.5%
viability, T/C [58]: 31%
viability, T/C [35]: 58%
viability, T/C [36]: 54.3%
viability, T/C [59]: 46.5%
viability, T/C [60]: 39.9%
viability, T/C [61]: 25.7%
viability, T/C [62]: 7.73%
viability, T/C [41]: 26.1%
viability, T/C [42]: 25.8%
viability, T/C [63]: 17.7%
viability, T/C [64]: 11.8%
viability, T/C [65]: 8.36%
viability, T/C [66]: 1.75%

Continued, compound first:

Compound: Cn1ncnc1[C@H]1c2n[nH]c(=O)c3cc(F)cc(c23)N[C@@H]1c1ccc(F)cc1 + COc1c(OCCCN2CCOCC2)ccc2c3n(c(=NC(=O)c4cnc(N)nc4)nc12)CCN3
IC50 [1]: > 100 nM
IC50 [2]: > 100 nM
IC50 [3]: > 100 nM
IC50 [4]: > 100 nM
IC50 [5]: 1.1 nM
IC50 [6]: < 0.316 nM
viability, T/C [7]: 105%
viability, T/C [8]: 106%
viability, T/C [9]: 97.9%
viability, T/C [10]: 98.2%
viability, T/C [11]: 101%
viability, T/C [12]: 87.8%
viability, T/C [13]: 91.1%
viability, T/C [14]: 97.1%
viability, T/C [15]: 102%
viability, T/C [16]: 93%
viability, T/C [17]: 91.5%
viability, T/C [18]: 84.9%
viability, T/C [19]: 97%
viability, T/C [20]: 87%
viability, T/C [21]: 90%
viability, T/C [22]: 82.7%
viability, T/C [23]: 87.3%
viability, T/C [24]: 77.9%
viability, T/C [25]: 81.7%
viability, T/C [26]: 73.5%
viability, T/C [27]: 78.6%
viability, T/C [28]: 72.4%
viability, T/C [29]: 80.3%
viability, T/C [30]: 64.7%
viability, T/C [31]: 50.5%
viability, T/C [32]: 53.9%
viability, T/C [33]: 48.3%
viability, T/C [34]: 41.5%
viability, T/C [35]: 41%
viability, T/C [36]: 39.2%
viability, T/C [37]: 15.9%
viability, T/C [38]: 19.1%
viability, T/C [39]: 20.5%
viability, T/C [40]: 19.7%
viability, T/C [41]: 16.3%
viability, T/C [42]: 17.6%

Compound: Cc1nc(NC(=O)N2CCCC2C(N)=O)sc1-c1ccnc(C(C)(C)C(F)(F)F)c1 (centres undefined)
viability, T/C (compound 0.0316 µM): 101% [middle of 8 runs]
viability, T/C (compound 0.316 µM): 97.9% [middle of 8 runs]
viability, T/C (compound 1 µM): 91.2% [middle of 8 runs]
viability, T/C (compound 3.16 µM): 87.2% [middle of 8 runs]
viability, T/C (compound 10 µM): 73.8% [middle of 8 runs]
IC50 (compound alone, run of 05/08/2023): > 10000 nM

Reference: PubChem BioAssay AID1963979 (Molecular Pharmacology Branch, DTP, NCI, 2024)
